Test results taken from patent US8377884B2, “Variants of C-type natriuretic peptides” (Biomarin Pharmaceutical Inc., priority 2007, dated 2013).
Read-outs that look alike come from different tables or passages of the source. Bridge positions count the residues as written; N and C are the ends. Ends that are not written are not given here. Peptide text beside a SMILES is read from it. * marks the point of attachment. PEG2K = polydispersed PEG of number-average molecular weight 2 kDa; Heptanoyl = CCCCCCC(=O)*

How the values were obtained:
Recombinant human NEP = Recombinant human NEP (Homo sapiens, UniProt P08473); assay: in vitro
Procedure: (§1) To determine the effects of amino acid substitutions, amino acid extensions, backbone modifications, side chain modifications and PEGylation on the susceptibility of CNP variants to neutral endopeptidase (NEP) cleavage, peptide cleavage assays were carried out using an in vitro assay that monitored disappearance of the non-cleaved CNP variant.
(§2) Recombinant human NEP (1 ug/mL final concentration) was added to 100 uM CNP variant diluted in 0.1 M Tris, pH 7. The reaction mixture was incubated at 37° C. for various periods of time, and the reaction was quenched with EDTA (10 mM final) followed by heat denaturation. The reaction mixture was reduced and then the reaction products were analyzed using HPLC and mass spectroscopy. The half-life of the CNP variant was calculated based on the disappearance of intact CNP variant over time.

NPR-B = target: T1, NPR-B (Mus musculus, UniProt Q6VVW5); assay: Stimulation of cGMP production in NIH3T3 cells; format: cell-based, Murine; conditions: for cGMP response relative to 1 uM CNP22 (%) at 0.01 µM: read-out: cGMP Response rel. to 1 uM CNP22, 10 nM; for cGMP response relative to 1 uM CNP22 (%) at 1 µM: read-out: cGMP Response rel. to 1 uM CNP22, 1 uM
T1 construct: Murine NIH3T3 cells express endogenously the CNP signaling receptor, NPR-B; endogenous in cells; host or cells: NIH3T3 (murine fibroblasts)
T1 sequence (Q6VVW5 17-1047): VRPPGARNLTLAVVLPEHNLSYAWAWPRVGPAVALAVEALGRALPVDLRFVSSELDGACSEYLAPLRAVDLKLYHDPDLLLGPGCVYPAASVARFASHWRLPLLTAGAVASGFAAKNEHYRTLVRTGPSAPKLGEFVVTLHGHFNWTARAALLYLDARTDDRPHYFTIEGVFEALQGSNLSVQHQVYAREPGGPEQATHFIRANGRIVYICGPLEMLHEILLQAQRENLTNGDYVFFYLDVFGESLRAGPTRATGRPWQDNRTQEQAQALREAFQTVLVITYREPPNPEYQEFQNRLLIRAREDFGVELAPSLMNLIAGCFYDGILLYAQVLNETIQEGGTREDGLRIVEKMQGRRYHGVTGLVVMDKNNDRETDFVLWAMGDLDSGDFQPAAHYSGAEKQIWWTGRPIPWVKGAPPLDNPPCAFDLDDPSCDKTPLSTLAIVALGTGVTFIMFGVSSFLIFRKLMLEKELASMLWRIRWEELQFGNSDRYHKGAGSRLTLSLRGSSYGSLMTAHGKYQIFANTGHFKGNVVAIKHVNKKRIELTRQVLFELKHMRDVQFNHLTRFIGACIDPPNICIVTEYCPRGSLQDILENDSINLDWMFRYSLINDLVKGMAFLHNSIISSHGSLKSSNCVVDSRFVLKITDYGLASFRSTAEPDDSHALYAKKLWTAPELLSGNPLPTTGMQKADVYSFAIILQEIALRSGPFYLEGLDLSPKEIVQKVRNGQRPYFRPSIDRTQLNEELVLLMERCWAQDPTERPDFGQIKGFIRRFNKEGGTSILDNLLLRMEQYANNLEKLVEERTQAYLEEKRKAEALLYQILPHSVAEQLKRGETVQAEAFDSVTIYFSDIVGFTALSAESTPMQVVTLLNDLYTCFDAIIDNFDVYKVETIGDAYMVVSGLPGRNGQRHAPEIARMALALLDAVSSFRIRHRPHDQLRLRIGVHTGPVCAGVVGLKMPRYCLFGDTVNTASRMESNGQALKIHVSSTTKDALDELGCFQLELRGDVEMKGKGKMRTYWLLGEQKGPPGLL

[1] = target: neutral endopeptidase (NEP) (Homo sapiens, UniProt P08473); assay: In vitro neutral endopeptidase (NEP) cleavage assay; conditions: human, pH 7
Procedure: as §1, §2

[2] = NIH3T3 cells, 10 nM natriuretic peptide, normalized to cell number and cGMP production with 1 uM wtCNP22
[3] = NIH3T3 cells, 1 uM natriuretic peptide, normalized to cell number and cGMP production with 1 uM wtCNP22

Chain of neutral endopeptidase (NEP) (P08473 whole entry): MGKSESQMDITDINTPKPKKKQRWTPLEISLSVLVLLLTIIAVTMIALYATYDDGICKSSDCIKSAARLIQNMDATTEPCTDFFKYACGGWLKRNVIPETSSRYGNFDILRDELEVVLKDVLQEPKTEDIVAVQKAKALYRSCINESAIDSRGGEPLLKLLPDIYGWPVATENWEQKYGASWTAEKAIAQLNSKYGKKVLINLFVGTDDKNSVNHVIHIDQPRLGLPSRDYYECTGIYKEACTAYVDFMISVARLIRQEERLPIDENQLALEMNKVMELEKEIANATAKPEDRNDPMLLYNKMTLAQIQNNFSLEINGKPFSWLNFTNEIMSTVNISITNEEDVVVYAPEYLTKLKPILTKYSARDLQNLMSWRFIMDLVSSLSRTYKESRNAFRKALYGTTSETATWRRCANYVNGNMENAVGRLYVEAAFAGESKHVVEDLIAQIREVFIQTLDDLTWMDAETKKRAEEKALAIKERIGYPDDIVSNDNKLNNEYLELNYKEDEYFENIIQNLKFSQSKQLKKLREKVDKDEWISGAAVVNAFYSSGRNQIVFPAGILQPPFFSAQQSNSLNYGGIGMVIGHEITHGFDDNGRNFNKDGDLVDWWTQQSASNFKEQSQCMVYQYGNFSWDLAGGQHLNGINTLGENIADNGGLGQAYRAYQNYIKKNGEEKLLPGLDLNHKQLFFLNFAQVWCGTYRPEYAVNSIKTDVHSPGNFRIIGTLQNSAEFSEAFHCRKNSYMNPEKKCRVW
Chain of Recombinant human NEP (P08473 whole entry): as above

Molecule | half-life at 100 uM [1] | cGMP response relative to 1 uM CNP22 (%) at 0.01 µM (NPR-B; [2]) | cGMP response relative to 1 uM CNP22 (%) at 1 µM (NPR-B; [3]) | half-life at 100 uM ([1]; recombinant human neutral endopeptidase (NEP)) | resistance to NEP cleavage/degradation (in words) (Recombinant human NEP) | cGMP response relative to 1 uM CNP22 (%) at 0.01 µM (NPR-B; NIH3T3, […]) | cGMP response relative to 1 uM CNP22 (%) at 1 µM (NPR-B; NIH3T3, […])
PEG2K-CNP22(K4G): CNP22 having a K4G substitution, N-terminal PEGylated with PEG2K (PEG2K-GLSGGCFGLKLDRIGSMSGLGC; disulfide 6-22 (inferred); UniProt P23582 105-126, looked up, variant K4G) |  |  |  |  | only slightly more resistant to NEP cleavage than CNP22 |  | 
CCCCCCC(=O)N[C@@H](CCC(=O)O)C(=O)N[C@@H](CC(C)C)C(=O)N[C@@H](CO)C(=O)N[C@@H](CCCCN)C(=O)NCC(=O)N[C@H]1CSSC[C@@H](C(=O)O)NC(=O)CNC(=O)[C@H](CC(C)C)NC(=O)CNC(=O)[C@H](CO)NC(=O)[C@H](CCSC)NC(=O)[C@H](CO)NC(=O)CNC(=O)[C@H]([C@@H](C)CC)NC(=O)[C@H](CCCNC(=N)N)NC(=O)[C@H](CC(=O)O)NC(=O)[C@H](CC(C)C)NC(=O)[C@H](CCCCN)NC(=O)[C@H](CC(C)C)NC(=O)CNC(=O)[C@H](Cc2ccccc2)NC1=O [BB] (Heptanoyl-ELSKGCFGLKLDRIGSMSGLGC-OH; disulfide 6-22 (inferred); C-terminus assumed) | 0.75 to 1.08 h |  |  |  |  | 32 ± 4% | 84 ± 19%
CC[C@H](C)[C@@H]1NC(=O)[C@H](CCCNC(=N)N)NC(=O)[C@H](CC(=O)O)NC(=O)[C@H](CC(C)C)NC(=O)[C@H](CCCCN)NC(=O)[C@H](CC(C)C)NC(=O)CNC(=O)[C@H](Cc2ccccc2)NC(=O)[C@@H](NC(=O)CNC(=O)[C@H](CCCNC(=N)N)NC(=O)[C@H](CO)NC(=O)[C@H](CC(C)C)NC(=O)CN)CSSC[C@@H](C(=O)O)NC(=O)CNC(=O)[C@H](CC(C)C)NC(=O)CNC(=O)[C@H](CO)NC(=O)[C@H](CCSC)NC(=O)[C@H](CO)NC(=O)CNC1=O [AH] (H-GLSRGCFGLKLDRIGSMSGLGC-OH; disulfide 6-22 (inferred); N-terminus and C-terminus assumed) |  | 59% | 121% | 1.33 h |  |  | 
CC[C@H](C)[C@@H]1NC(=O)[C@H](CCCNC(=N)N)NC(=O)[C@H](CC(=O)O)NC(=O)[C@H](CC(C)C)NC(=O)[C@H](CCCCN)NC(=O)[C@H](CC(C)C)NC(=O)CNC(=O)[C@H](Cc2ccccc2)NC(=O)[C@@H](NC(=O)CNC(=O)[C@H](CCCNC(=N)N)NC(=O)[C@H](CO)NC(=O)[C@H](CC(C)C)NC(=O)CNC(=O)[C@H](CO)NC(=O)[C@H](CO)NC(=O)[C@H](CC(N)=O)NC(=O)[C@H](C)NC(=O)CN)CSSC[C@@H](C(=O)O)NC(=O)CNC(=O)[C@H](CC(C)C)NC(=O)CNC(=O)[C@H](CO)NC(=O)[C@H](CCSC)NC(=O)[C@H](CO)NC(=O)CNC1=O [CG] (H-GANSSGLSRGCFGLKLDRIGSMSGLGC-OH; disulfide 11-27 (inferred); N-terminus and C-terminus assumed) | 1.58 h | 27 ± 1% | 88 ± 1% |  |  |  | 
CC[C@H](C)[C@@H]1NC(=O)[C@H](CCCNC(=N)N)NC(=O)[C@H](CC(=O)O)NC(=O)[C@H](CC(C)C)NC(=O)[C@H](CCCCN)NC(=O)[C@H](CC(C)C)N(C)C(=O)CNC(=O)[C@H](Cc2ccccc2)NC(=O)[C@@H](NC(=O)CNC(=O)[C@H](CCCCN)NC(=O)[C@H](CO)NC(=O)[C@H](CC(C)C)NC(=O)CN)CSSC[C@@H](C(=O)O)NC(=O)CNC(=O)[C@H](CC(C)C)N(C)C(=O)CNC(=O)[C@H](CO)NC(=O)[C@H](CCSC)NC(=O)[C@H](CO)NC(=O)CNC1=O [K] | 1.33 h |  |  |  |  | 1% | 1%

The next lines start with results.

half-life at 100 uM [1] | cGMP response relative to 1 uM CNP22 (%) at 0.01 µM (NPR-B; [2]) | cGMP response relative to 1 uM CNP22 (%) at 1 µM (NPR-B; [3]) | half-life at 100 uM ([1]; recombinant human neutral endopeptidase (NEP)) | Molecule | resistance to NEP cleavage/degradation (in words) (Recombinant human NEP) | cGMP response relative to 1 uM CNP22 (%) at 0.01 µM (NPR-B; NIH3T3, […]) | cGMP response relative to 1 uM CNP22 (%) at 1 µM (NPR-B; NIH3T3, […])
1.5 h | 38 ± 10% | 113 ± 10% |  | CC[C@H](C)[C@@H]1NC(=O)[C@H](CCCNC(=N)N)NC(=O)[C@H](CC(=O)O)NC(=O)[C@H](CC(C)C)NC(=O)[C@H](CCCCN)NC(=O)[C@H](CC(C)C)NC(=O)CNC(=O)[C@H](Cc2ccccc2)NC(=O)[C@@H](NC(=O)CNC(=O)[C@H](CCCNC(=N)N)NC(=O)[C@H](CO)NC(=O)[C@H](CC(C)C)NC(=O)CNC(=O)[C@H](CCCNC(=N)N)NC(=O)[C@@H](N)CCC(=O)O)CSSC[C@@H](C(=O)O)NC(=O)CNC(=O)[C@H](CC(C)C)NC(=O)CNC(=O)[C@H](CO)NC(=O)[C@H](CCSC)NC(=O)[C@H](CO)NC(=O)CNC1=O [BA] (H-ERGLSRGCFGLKLDRIGSMSGLGC-OH; disulfide 8-24 (inferred); N-terminus and C-terminus assumed) |  |  | 
> 2.67 h | 19% | 61% |  | CC[C@H](C)[C@@H]1NC(=O)[C@H](CCCNC(=N)N)NC(=O)[C@H](CC(=O)O)NC(=O)[C@H](CC(C)C)NC(=O)[C@H](CCCCN)NC(=O)[C@H](CC(C)C)NC(=O)CNC(=O)[C@H](Cc2ccccc2)NC(=O)[C@@H](NC(=O)CNC(=O)[C@H](CCCCN)NC(=O)[C@H](CO)NC(=O)[C@H](CC(C)C)NC(=O)CNC(=O)[C@H](CCCCN)NC(=O)[C@@H]2CCCN2C(=O)[C@H](CC(N)=O)NC(=O)[C@H](C)NC(=O)CNC(=O)[C@H](CCCCN)NC(=O)[C@H](Cc2ccc(O)cc2)NC(=O)[C@H](CCCCN)NC(=O)[C@H](CCCNC(=N)N)NC(=O)[C@H](C)NC(=O)[C@H](CC(N)=O)NC(=O)[C@@H]2CCCN2C(=O)[C@H](Cc2c[nH]cn2)NC(=O)[C@H](CCC(=O)O)NC(=O)[C@H](CCC(N)=O)NC(=O)CN)CSSC[C@@H](C(=O)O)NC(=O)CNC(=O)[C@H](CC(C)C)NC(=O)CNC(=O)[C@H](CO)NC(=O)[C@H](CCSC)NC(=O)[C@H](CO)NC(=O)CNC1=O [CS] (H-GQEHPNARKYKGANPKGLSKGCFGLKLDRIGSMSGLGC-OH; disulfide 22-38 (inferred); N-terminus and C-terminus assumed) |  |  | 
> 2.67 h | 34% | 101% |  | CC[C@H](C)[C@@H]1NC(=O)[C@H](CCCNC(=N)N)NC(=O)[C@H](CC(=O)O)NC(=O)[C@H](CC(C)C)NC(=O)[C@H](CCCCN)NC(=O)[C@H](CC(C)C)NC(=O)CNC(=O)[C@H](Cc2ccccc2)NC(=O)[C@@H](NC(=O)CNC(=O)[C@H](CCCCN)NC(=O)[C@H](CO)NC(=O)[C@H](CC(C)C)NC(=O)CNC(=O)[C@H](CCCNC(=N)N)NC(=O)[C@H](C)NC(=O)[C@H](Cc2c[nH]c3ccccc23)NC(=O)[C@H](C)NC(=O)[C@H](C)NC(=O)[C@H](CCCNC(=N)N)NC(=O)[C@H](CO)NC(=O)[C@H](CCCCN)NC(=O)[C@@H](NC(=O)[C@H](CC(=O)O)NC(=O)[C@@H](NC(=O)[C@H](CCCNC(=N)N)NC(=O)[C@H](CC(C)C)NC(=O)[C@@H](N)CC(=O)O)C(C)C)[C@@H](C)O)CSSC[C@@H](C(=O)O)NC(=O)CNC(=O)[C@H](CC(C)C)NC(=O)CNC(=O)[C@H](CO)NC(=O)[C@H](CCSC)NC(=O)[C@H](CO)NC(=O)CNC1=O [CC] (H-DLRVDTKSRAAWARGLSKGCFGLKLDRIGSMSGLGC-OH; disulfide 20-36 (inferred); N-terminus and C-terminus assumed) |  |  | 
